Results published in paper PMC4490784, “Compensatory induction of MYC expression by sustained CDK9 inhibition via a BRD4-dependent mechanism” (eLife, 2015).

Experiments:
Assay in all cases: KINOMEscan binding assay
[1] = molecular target: T1, HIPK1 (Homo sapiens, UniProt Q86Z02); details: read-out: % Retention on Solid Support
T1 construct: purchased DiscoveRx KINOMEscan
Procedure, shortened: (§1)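 Panel of >400 kinases screened by active-site competition binding, compound at 1 and 10 µM.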

[2] = molecular target: T2, MEK3 (Homo sapiens, UniProt P46734); details: read-out: % Retention on Solid Support
T2 construct: purchased DiscoveRx KINOMEscan
Procedure, shortened: as §1

[3] = molecular target: T3, EPHA7 (Homo sapiens, UniProt Q15375); details: read-out: % Retention on Solid Support
T3 construct: purchased DiscoveRx KINOMEscan
Procedure, shortened: as §1

[4] = molecular target: T4, KIT(V559D,V654A) (Homo sapiens, UniProt P10721, V559D/V654A); details: read-out: % Retention on Solid Support
T4 construct: purchased DiscoveRx KINOMEscan
Procedure, shortened: as §1

[5] = molecular target: T5, TAOK2 (Homo sapiens, UniProt Q9UL54); details: read-out: % Retention on Solid Support
T5 construct: purchased DiscoveRx KINOMEscan
Procedure, shortened: as §1

[6] = molecular target: T6, PDGFRA (Homo sapiens, UniProt P16234); details: read-out: % Retention on Solid Support
T6 construct: purchased DiscoveRx KINOMEscan
Procedure, shortened: as §1

[7] = molecular target: T7, RSK4(Kin.Dom.1-N-terminal) (Homo sapiens, UniProt Q9UK32)
T7 construct: RSK4(Kin.Dom.1-N-terminal); purchased DiscoveRx KINOMEscan
T7 sequence (Q9UK32 1-400 limits assumed): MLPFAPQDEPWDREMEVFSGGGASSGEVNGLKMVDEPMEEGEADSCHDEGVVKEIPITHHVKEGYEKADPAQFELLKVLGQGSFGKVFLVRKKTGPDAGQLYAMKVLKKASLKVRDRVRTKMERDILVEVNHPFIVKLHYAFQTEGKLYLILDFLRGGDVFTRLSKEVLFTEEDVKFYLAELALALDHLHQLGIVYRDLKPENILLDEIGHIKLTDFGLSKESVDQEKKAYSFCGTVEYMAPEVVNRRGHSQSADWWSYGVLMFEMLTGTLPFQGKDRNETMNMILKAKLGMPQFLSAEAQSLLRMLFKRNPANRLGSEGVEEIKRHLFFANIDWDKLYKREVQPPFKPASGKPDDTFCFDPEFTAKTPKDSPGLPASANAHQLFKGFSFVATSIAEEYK
Procedure, shortened: as §1

[8] = molecular target: T8, PFTK1 (Homo sapiens, UniProt O94921)
T8 construct: purchased DiscoveRx KINOMEscan
Procedure, shortened: as §1

[9] = molecular target: T9, FLT3(D835Y) (Homo sapiens, UniProt P36888, D835Y); details: read-out: % Retention on Solid Support
T9 construct: purchased DiscoveRx KINOMEscan
Procedure, shortened: as §1

[10] = molecular target: T10, ITK (Homo sapiens, UniProt Q08881)
T10 construct: purchased DiscoveRx KINOMEscan
Procedure, shortened: as §1

[11] = molecular target: T11, p38-alpha (Homo sapiens, UniProt Q16539)
T11 construct: purchased DiscoveRx KINOMEscan
Procedure, shortened: as §1

[12] = molecular target: T12, EGFR(G719S) (Homo sapiens, UniProt P00533, G719S)
T12 construct: purchased DiscoveRx KINOMEscan
Procedure, shortened: as §1

[13] = molecular target: T13, ACVRL1 (Homo sapiens, UniProt P37023); details: read-out: % Retention on Solid Support
T13 construct: purchased DiscoveRx KINOMEscan
Procedure, shortened: as §1

[14] = molecular target: T14, ABL1(E255K)-phosphorylated (Homo sapiens, UniProt P00519, E255K); details: 1 µM i-CDK9; read-out: % Retention on Solid Support
T14 construct: purchased DiscoveRx KINOMEscan
Procedure, shortened: as §1

[15] = molecular target: T15, CDKL1 (Homo sapiens, UniProt Q00532); details: 1 µM i-CDK9; read-out: % Retention on Solid Support
T15 construct: purchased DiscoveRx KINOMEscan
Procedure, shortened: as §1

[16] = molecular target: T16, PIK3C2B (Homo sapiens, UniProt O00750); details: read-out: % Retention on Solid Support
T16 construct: purchased DiscoveRx KINOMEscan
Procedure, shortened: as §1

[17] = molecular target: T17, MET(M1250T) (Homo sapiens, UniProt P08581, M1250T)
T17 construct: purchased DiscoveRx KINOMEscan
Procedure, shortened: as §1

[18] = molecular target: T18, MERTK (Homo sapiens, UniProt Q12866); details: read-out: % Retention on Solid Support
T18 construct: purchased DiscoveRx KINOMEscan
Procedure, shortened: as §1

[19] = molecular target: T19, PKN1 (Homo sapiens, UniProt Q16512); details: read-out: % Retention on Solid Support
T19 construct: purchased DiscoveRx KINOMEscan
Procedure, shortened: as §1

[20] = molecular target: T20, ABL1(Q252H)-nonphosphorylated (Homo sapiens, UniProt P00519, Q252H); details: read-out: % Retention on Solid Support
T20 construct: purchased DiscoveRx KINOMEscan
Procedure, shortened: as §1

[21] = molecular target: T21, MAP3K1 (Homo sapiens, UniProt Q13233); details: read-out: % Retention on Solid Support
T21 construct: purchased DiscoveRx KINOMEscan
T21 sequence (Q13233 whole entry): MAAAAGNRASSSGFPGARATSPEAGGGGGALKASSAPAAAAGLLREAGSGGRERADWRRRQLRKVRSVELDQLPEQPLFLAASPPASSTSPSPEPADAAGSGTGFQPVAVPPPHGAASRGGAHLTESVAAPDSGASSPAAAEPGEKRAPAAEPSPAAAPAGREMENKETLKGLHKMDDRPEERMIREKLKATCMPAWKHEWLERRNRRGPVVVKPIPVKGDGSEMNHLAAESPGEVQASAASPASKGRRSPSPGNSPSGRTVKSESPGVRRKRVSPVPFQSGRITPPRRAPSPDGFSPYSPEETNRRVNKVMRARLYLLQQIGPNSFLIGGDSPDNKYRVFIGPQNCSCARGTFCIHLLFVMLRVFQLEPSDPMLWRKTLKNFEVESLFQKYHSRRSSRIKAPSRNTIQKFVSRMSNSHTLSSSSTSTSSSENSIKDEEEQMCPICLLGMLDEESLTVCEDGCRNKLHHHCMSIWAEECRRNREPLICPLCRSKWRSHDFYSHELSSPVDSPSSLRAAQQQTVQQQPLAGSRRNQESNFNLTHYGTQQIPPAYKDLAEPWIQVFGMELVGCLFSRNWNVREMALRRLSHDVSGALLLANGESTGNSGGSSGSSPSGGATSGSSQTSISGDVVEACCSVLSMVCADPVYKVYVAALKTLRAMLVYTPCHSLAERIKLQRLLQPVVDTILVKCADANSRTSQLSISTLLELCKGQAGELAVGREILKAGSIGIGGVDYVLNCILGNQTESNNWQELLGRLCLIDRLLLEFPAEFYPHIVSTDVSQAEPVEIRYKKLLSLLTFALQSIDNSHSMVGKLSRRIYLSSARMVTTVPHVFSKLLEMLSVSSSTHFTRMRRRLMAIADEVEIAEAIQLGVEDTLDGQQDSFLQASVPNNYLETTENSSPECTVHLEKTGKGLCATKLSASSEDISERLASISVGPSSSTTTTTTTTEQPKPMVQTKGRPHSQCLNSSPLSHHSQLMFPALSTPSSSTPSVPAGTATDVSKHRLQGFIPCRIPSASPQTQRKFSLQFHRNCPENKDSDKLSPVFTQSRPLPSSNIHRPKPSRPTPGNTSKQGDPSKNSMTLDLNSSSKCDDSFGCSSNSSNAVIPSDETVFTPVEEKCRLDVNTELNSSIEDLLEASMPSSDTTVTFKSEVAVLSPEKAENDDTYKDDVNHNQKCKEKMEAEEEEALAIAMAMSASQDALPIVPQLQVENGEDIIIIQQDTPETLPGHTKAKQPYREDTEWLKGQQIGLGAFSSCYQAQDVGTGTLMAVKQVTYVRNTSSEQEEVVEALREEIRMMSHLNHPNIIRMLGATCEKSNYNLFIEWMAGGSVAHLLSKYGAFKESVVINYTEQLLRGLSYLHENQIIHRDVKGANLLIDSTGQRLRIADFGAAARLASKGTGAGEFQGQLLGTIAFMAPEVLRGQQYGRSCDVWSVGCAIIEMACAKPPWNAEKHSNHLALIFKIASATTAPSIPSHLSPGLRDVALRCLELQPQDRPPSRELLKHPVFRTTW
Procedure, shortened: as §1

[22] = molecular target: T22, RIPK4 (Homo sapiens, UniProt P57078); details: read-out: % Retention on Solid Support
T22 construct: purchased DiscoveRx KINOMEscan
T22 sequence (P57078 whole entry): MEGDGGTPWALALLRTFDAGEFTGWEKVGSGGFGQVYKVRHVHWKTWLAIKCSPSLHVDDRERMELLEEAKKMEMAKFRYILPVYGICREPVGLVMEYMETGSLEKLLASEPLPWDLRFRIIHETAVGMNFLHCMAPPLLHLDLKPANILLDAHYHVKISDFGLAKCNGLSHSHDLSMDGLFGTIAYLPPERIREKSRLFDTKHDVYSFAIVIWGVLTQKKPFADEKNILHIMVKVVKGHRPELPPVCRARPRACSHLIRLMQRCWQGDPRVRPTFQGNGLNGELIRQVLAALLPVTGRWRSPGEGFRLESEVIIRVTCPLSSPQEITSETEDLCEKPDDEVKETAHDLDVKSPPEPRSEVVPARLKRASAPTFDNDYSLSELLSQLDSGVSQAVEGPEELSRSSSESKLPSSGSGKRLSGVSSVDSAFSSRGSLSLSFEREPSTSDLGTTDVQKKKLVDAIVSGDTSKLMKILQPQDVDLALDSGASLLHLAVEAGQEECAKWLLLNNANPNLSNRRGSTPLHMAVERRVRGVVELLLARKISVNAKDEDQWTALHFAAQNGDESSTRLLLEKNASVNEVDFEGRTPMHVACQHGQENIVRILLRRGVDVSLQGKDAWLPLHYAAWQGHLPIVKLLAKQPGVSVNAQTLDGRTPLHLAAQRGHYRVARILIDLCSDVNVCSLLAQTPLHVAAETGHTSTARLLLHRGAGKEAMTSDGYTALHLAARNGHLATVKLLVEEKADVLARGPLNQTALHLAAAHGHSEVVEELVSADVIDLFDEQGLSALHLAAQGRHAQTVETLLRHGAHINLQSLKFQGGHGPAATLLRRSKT
Procedure, shortened: as §1

[23] = molecular target: T23, PKN2 (Homo sapiens, UniProt Q16513); details: read-out: % Retention on Solid Support
T23 construct: purchased DiscoveRx KINOMEscan
T23 sequence (Q16513 whole entry): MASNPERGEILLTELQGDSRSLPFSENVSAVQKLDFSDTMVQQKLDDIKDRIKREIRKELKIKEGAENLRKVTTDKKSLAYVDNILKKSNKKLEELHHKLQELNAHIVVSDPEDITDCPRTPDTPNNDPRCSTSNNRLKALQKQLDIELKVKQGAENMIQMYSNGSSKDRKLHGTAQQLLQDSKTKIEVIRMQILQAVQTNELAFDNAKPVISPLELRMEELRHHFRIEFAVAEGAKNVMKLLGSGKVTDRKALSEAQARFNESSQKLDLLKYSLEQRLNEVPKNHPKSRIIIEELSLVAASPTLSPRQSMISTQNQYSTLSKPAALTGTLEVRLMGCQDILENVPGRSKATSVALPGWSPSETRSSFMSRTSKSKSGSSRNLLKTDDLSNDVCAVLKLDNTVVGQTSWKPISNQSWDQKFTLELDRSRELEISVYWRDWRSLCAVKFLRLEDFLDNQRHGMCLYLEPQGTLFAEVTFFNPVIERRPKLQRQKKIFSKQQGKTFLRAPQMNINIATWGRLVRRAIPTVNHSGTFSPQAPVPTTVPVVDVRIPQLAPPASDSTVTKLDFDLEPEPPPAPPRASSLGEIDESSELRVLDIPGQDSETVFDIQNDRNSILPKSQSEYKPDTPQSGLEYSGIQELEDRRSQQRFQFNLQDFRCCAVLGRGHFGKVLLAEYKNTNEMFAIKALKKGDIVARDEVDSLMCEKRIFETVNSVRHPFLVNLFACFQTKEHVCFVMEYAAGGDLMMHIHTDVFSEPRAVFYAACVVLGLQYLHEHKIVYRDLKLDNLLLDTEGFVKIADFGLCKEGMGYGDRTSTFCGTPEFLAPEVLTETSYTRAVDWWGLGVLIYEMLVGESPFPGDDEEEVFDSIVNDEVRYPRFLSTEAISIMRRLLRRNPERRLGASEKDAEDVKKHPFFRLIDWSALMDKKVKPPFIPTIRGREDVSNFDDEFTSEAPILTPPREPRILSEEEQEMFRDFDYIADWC
Procedure, shortened: as §1

[24] = molecular target: T24, ERK4 (Homo sapiens, UniProt P31152); details: read-out: % Retention on Solid Support
T24 construct: purchased DiscoveRx KINOMEscan
Procedure, shortened: as §1

[25] = molecular target: T25, ERBB3 (Homo sapiens, UniProt P21860); details: read-out: % Retention on Solid Support
T25 construct: purchased DiscoveRx KINOMEscan
Procedure, shortened: as §1

[26] = molecular target: T26, IKK-beta (Homo sapiens, UniProt O14920); details: read-out: % Retention on Solid Support
T26 construct: purchased DiscoveRx KINOMEscan
Procedure, shortened: as §1

[27] = molecular target: T27, CAMK2A (Homo sapiens, UniProt Q9UQM7); details: read-out: % Retention on Solid Support
T27 construct: purchased DiscoveRx KINOMEscan
Procedure, shortened: as §1

[28] = molecular target: T28, CDK7 (Homo sapiens, UniProt P50613); details: read-out: % Retention on Solid Support
T28 construct: purchased DiscoveRx KINOMEscan
Procedure, shortened: as §1

[29] = molecular target: T29, PFCDPK1(P.falciparum) (Plasmodium falciparum, UniProt P62344); details: 1 µM i-CDK9; read-out: % Retention on Solid Support
T29 construct: purchased DiscoveRx KINOMEscan
Procedure, shortened: as §1

T1 sequence (Q86Z02 whole entry): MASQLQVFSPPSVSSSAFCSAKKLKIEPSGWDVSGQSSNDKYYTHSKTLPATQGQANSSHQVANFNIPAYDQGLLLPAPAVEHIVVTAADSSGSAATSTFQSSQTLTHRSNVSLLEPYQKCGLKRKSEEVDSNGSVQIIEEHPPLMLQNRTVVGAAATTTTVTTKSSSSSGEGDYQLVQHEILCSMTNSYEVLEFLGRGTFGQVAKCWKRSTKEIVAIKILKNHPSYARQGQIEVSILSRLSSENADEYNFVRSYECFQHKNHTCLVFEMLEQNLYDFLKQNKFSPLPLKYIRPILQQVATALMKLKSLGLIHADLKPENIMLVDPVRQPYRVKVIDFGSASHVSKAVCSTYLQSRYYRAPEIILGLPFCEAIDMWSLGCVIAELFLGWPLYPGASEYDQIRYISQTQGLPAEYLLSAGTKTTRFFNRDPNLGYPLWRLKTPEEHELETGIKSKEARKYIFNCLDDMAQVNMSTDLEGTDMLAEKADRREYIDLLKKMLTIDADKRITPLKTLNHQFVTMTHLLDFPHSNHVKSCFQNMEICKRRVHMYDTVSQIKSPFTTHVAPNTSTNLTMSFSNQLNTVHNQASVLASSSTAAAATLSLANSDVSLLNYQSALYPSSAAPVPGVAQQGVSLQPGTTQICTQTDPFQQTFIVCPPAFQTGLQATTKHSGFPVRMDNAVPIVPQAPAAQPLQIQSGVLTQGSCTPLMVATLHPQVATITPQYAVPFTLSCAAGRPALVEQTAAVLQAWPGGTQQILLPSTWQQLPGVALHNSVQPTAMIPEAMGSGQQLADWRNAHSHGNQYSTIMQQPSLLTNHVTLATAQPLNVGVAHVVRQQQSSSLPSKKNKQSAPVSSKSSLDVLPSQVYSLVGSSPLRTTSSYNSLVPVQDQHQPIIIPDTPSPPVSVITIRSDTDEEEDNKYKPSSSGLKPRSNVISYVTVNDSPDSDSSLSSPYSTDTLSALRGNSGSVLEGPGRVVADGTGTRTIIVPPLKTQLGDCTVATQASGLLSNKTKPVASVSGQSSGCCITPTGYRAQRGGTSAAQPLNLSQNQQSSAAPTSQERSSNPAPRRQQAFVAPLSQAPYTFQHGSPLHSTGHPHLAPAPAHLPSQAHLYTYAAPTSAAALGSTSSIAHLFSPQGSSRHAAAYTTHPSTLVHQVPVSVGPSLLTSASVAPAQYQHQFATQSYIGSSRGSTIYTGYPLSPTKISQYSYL

Compound: N[C@H]1CC[C@H](Nc2cc(-c3cccc(NCc4cccc(F)c4)n3)c(Cl)cn2)CC1 [i-CDK9, N2′-(trans-4-aminocyclohexyl)-5′-chloro-N6-(3-fluorobenzyl)-2,4′-bipyridine-2′,6-diamine]
- remaining binding at 1 µM ([1]; 1 µM i-CDK9): 44%
- remaining binding at 10 µM ([1]; 10 µM i-CDK9): 29%
- remaining binding at 1 µM ([2]; 1 µM i-CDK9): 99%
- remaining binding at 10 µM ([2]; 10 µM i-CDK9): 85%
- remaining binding at 1 µM ([3]; 1 µM i-CDK9): 100%
- remaining binding at 10 µM ([3]; 10 µM i-CDK9): 96%
- remaining binding at 1 µM ([4]; 1 µM i-CDK9): 100%
- remaining binding at 10 µM ([4]; 10 µM i-CDK9): 75%
- remaining binding at 1 µM ([5]; 1 µM i-CDK9): 82%
- remaining binding at 10 µM ([5]; 10 µM i-CDK9): 5.8%
- remaining binding at 1 µM ([6]; 1 µM i-CDK9): 59%
- remaining binding at 10 µM ([6]; 10 µM i-CDK9): 88%
- % Retention on Solid Support ([7]; 1 µM i-CDK9): 70%
- % Retention on Solid Support ([7]; 10 µM i-CDK9): 100%
- % Retention on Solid Support ([8]; 1 µM i-CDK9): 76%
- % Retention on Solid Support ([8]; 10 µM i-CDK9): 5.4%
- remaining binding at 1 µM ([9]; 1 µM i-CDK9): 100%
- remaining binding at 10 µM ([9]; 10 µM i-CDK9): 68%
- % Retention on Solid Support ([10]; 1 µM i-CDK9): 100%
- % Retention on Solid Support ([10]; 10 µM i-CDK9): 86%
- % Retention on Solid Support ([11]; 1 µM i-CDK9): 85%
- % Retention on Solid Support ([11]; 10 µM i-CDK9): 100%
- % Retention on Solid Support ([12]; 1 µM i-CDK9): 100%
- % Retention on Solid Support ([12]; 10 µM i-CDK9): 100%
- remaining binding at 1 µM ([13]; 1 µM i-CDK9): 95%
- remaining binding at 10 µM ([13]; 10 µM i-CDK9): 100%
- remaining binding at 1 µM [14]: 74%
- remaining binding at 1 µM [15]: 100%
- remaining binding at 1 µM ([16]; 1 µM i-CDK9): 100%
- remaining binding at 10 µM ([16]; 10 µM i-CDK9): 95%
- % Retention on Solid Support ([17]; 1 µM i-CDK9): 86%
- % Retention on Solid Support ([17]; 10 µM i-CDK9): 100%
- remaining binding at 1 µM ([18]; 1 µM i-CDK9): 100%
- remaining binding at 10 µM ([18]; 10 µM i-CDK9): 60%
- remaining binding at 1 µM ([19]; 1 µM i-CDK9): 73%
- remaining binding at 10 µM ([19]; 10 µM i-CDK9): 100%
- remaining binding at 1 µM ([20]; 1 µM i-CDK9): 55%
- remaining binding at 10 µM ([20]; 10 µM i-CDK9): 91%
- remaining binding at 1 µM ([21]; 1 µM i-CDK9): 93%
- remaining binding at 10 µM ([21]; 10 µM i-CDK9): 100%
- remaining binding at 1 µM ([22]; 1 µM i-CDK9): 53%
- remaining binding at 10 µM ([22]; 10 µM i-CDK9): 100%
- remaining binding at 1 µM ([23]; 1 µM i-CDK9): 52%
- remaining binding at 10 µM ([23]; 10 µM i-CDK9): 93%
- remaining binding at 1 µM ([24]; 1 µM i-CDK9): 100%
- remaining binding at 10 µM ([24]; 10 µM i-CDK9): 100%
- remaining binding at 1 µM ([25]; 1 µM i-CDK9): 100%
- remaining binding at 10 µM ([25]; 10 µM i-CDK9): 100%
- remaining binding at 1 µM ([26]; 1 µM i-CDK9): 100%
- remaining binding at 10 µM ([26]; 10 µM i-CDK9): 87%
- remaining binding at 1 µM ([27]; 1 µM i-CDK9): 91%
- remaining binding at 10 µM ([27]; 10 µM i-CDK9): 81%
- remaining binding at 1 µM ([28]; 1 µM i-CDK9): 14%
- remaining binding at 10 µM ([28]; 10 µM i-CDK9): 11%
- remaining binding at 1 µM [29]: 100%
